The values below come from PMC6961122 (Bioorganic & Medicinal Chemistry, 2020).

Where two headings read alike, the source gives them in different places.

The test system of assay [1] is PI3Kα. Details: method as in earlier work. To be noted: recombinant kinase; previously obtained kinase profiling data; cited from earlier work.
Assay [2] has as its system U87 cells. Kind of assay: Cell viability assay (PrestoBlue, 5 d) in U87 glioma cells. The class given is cell-based. To be noted: Homo sapiens, U-87 MG, 120 h, library screen, 5 d treatment, mean of three independent experiments in triplicates, read-out: EC50 U87 ± SEM. As for the experimental part:
(§1) The antiproliferative activity of a total of 100 compounds was tested against U87 and T98 glioma cell lines, using TMZ[3] and the Topoisomerase I inhibitor SN-38[18] as positive controls. Cells were treated with the library members for 5 d at three different concentrations (3, 30 and 300 µM) and cell viability determined using the PrestoBlue reagent. Half-maximal effective concentration (EC50) values were calculated from the corresponding dose-response curves and plotted in Fig. 2a as a heatmap to facilitate data analysis, with black meaning no activity and dark to light green to yellow transitions indicating decreasing EC50 values (=increasing potencies). Table 1 of the Suppl. Data contains the corresponding EC50 values ± SEM.
(§2) INK128 and SN-38 were used as positive controls. […] Structurally, these derivatives differed in the size of the alkyl group of the N1 position and the presence or absence of an oxygen atom in that moiety (see Suppl. Data).
(§3) U87 and T98 cells (ATCC) were cultured in DMEM (Gibco), supplemented with 10% (v/v) FBS (Gibco) and 2 mM L-Glutamine (Gibco) in a standard incubator (95% humidity, 5% CO2), and subcultured twice per week through trypsinization. G317 patient-derived glioma cells were established by the Glioma Cellular Genetics Resource (gcgr.org.uk) funded by Cancer Research UK. Ethics approval for use of patient-derived cells and early access confirmation to reagents from the Glioma Cellular Genetics Resource assured that all ethical issues according to UK legislation are fulfilled. G317 were cultured in DMEM/HAMS-F12 (Sigma) supplemented with 1.5 g L^−1 D-(+)-Glucose (Sigma), MEM non-essential aminoacids (Gibco), 0.015% (w/v) Penicillin-Streptomycin (Gibco), 0.012% (w/v) BSA (Gibco), 0.1 mM β-mercaptoethanol (Gibco), B27 (Gibco) and N2 supplements (Gibco). Cells were detached using accutase solution (Sigma) and subcultured once per week. Before adding to the cells, medium was supplemented with 10 ng ml^−1 mouse EGF (Preprotech), 10 ng ml^−1 human FGF (Preprotech), and 1 µg ml^−1 Laminin (Sigma).
(§4) 1 × 10^3 U87 cells/well, 5 × 10^2 T98 cells/well, 1 × 10^4 G317 cells/well, 1 × 10^4 HBVP cells/well and 1 × 10^4 bEnd3 cells/well were seeded in 96-well plates. After 48 h in culture, cells were treated with the inhibitors for 5 d. For GI50 determination, the viability of a triplicate sample of each experiment before treatment was measured with the PrestoBlue Reagent (Invitrogen), to establish a basepoint 0% of growth. […] ZIP Synergy scores were obtained with Synergy finder.[22] Viability percentage, EC50 and GI50 values were obtained using GraphPad Prism version 8.0.0 for Windows, GraphPad Software, San Diego, California USA, www.graphpad.com.

Assay [3] relates to T98 cells. Put plainly: Cell viability assay (PrestoBlue, 5 d) in T98 glioma cells. Format: cell-based. To be noted: Homo sapiens, T98, 120 h, library screen, 5 d treatment, mean of three independent experiments in triplicates, read-out: EC50 T98 ± SEM. As for the experimental part: as §1, §2, §3, §4
In assay [4] the test system is mTOR. Details: method as in earlier work. To be noted: recombinant kinase; previously obtained kinase profiling data; cited from earlier work.
The test system of assay [5] is G317 patient-derived glioma cells. Put plainly: Growth inhibition (GI50, PrestoBlue, 5 d) in patient-derived glioma cells G317. The class given is cell-based, human. To be noted: 5 d treatment, growth related to t=0 and DMSO, extrapolated from sigmoidal dose-response curve; for GI50: read-out: GI50 (50% of growth inhibition) in G317. As for the experimental part: Cells were treated with each inhibitor at concentrations ranging from 1 to 10,000 nM and PrestoBlue assay used at day 5 to detect viability. […] Data are means ± SEM of 3 independent experiments in triplicates.
as §3, §4
Table S2 . GI 50 values (nM) calculated for eCF309 , eCF311 , eCF312 , eCF324 , eCF325 and controls
Cells were treated with 10, 3, 1 µM,
300, 100, 30, 10, 3, 1, 0 nM of each inhibitor during 5 d. Cell growth (PrestoBlue) was related to t=0 (before
drug treatment), and GI 50 values were extrapolated from their corresponding sigmoidal dose-response curve

Assay [6] concerns G317 spheroids. Kind of assay: 3D spheroids assay, G317 spheroid area. To be noted: pre-formed spheroids; 0.01–10 µM for 8 days. Format: cell-based, human. As for the experimental part: To test the compounds under conditions that better represent the tumour microenvironment, G317 cells were cultured in 3D and pre-formed spheroids treated with eCF309, eCF324 and the positive controls at a range of concentrations (0.01–10 µM) for 8 days.
Fig. 6 (a) Images of G317 spheroids on day 10. Spheroids were treated with 10 μM of each inhibitor during 8 days, images were acquired using ImageXpress. Scale bar = 100 μm. (b) Area of G317 patient derived spheroids at day 10. Spheroid area was calculated with a custom pipeline on CellProfiler. Data are mean ± SEM of 6 independent spheroids from two different cultures, ***P < 0.001, **P < 0.01 compared to DMSO controls (two-way ANOVA, Tukey post hoc test).
4 × 10^3 G317 cells were seeded in an ultra-low attachment round bottom 96-well plate, centrifuged at 1000g, 4 °C for 10 min and allowed to form spheroids for 2 days. Spheroids were then incubated with the inhibitors at 4 concentrations ranging from 10 nM to 10 µM. Spheroids were imaged at day 10 using ImageXpress (Molecular Devices LLC) and processed with ImageJ.[25] Spheroid area was calculated with a custom pipeline on CellProfiler.[26]

Assay [7] concerns T98 cells. Kind of assay: Cell viability assay (PrestoBlue, 5 d) in T98 glioma cells. Format: cell-based. To be noted: PrestoBlue day 5; for activity (EC50) of novel compounds in T98, in words: 1 to 30,000 nM, Fig. 7.
For assay [8], the system named is U87 cells. Kind of assay: Cell viability assay (PrestoBlue, 5 d) in U87 glioma cells. Format: cell-based. To be noted: PrestoBlue day 5; for activity (EC50) of novel compounds in U87, in words: 1 to 30,000 nM, Fig. 7.
Where [9] appears, read: Homo sapiens, Glioma cell, 120 h.
Where [10] appears, read: repeat for most potent hits, 7-point half-log dose-response 1 to 1,000 nM.

On to `CCOC(Cn1nc(-c2ccc3oc(N)nc3c2)c2c(N)ncnc21)OCC` [eCF309], for which the IC50 is 981 nM in assay [1] and 15 nM in assay [4]. Also, the EC50 in assay [2] was found to be 129 ± 19 nM; in assay [3] it was 128 ± 22 nM. Further, the GI50 in assay [5] was 64.9 nM; in assay [5] (setting [9]), 65 nM.
`CC(C)n1nc(-c2ccc3oc(N)nc3c2)c2c(N)ncnc21` [INK128, sapanisertib, reference compound]: the “reduction of G317 spheroid size (area at day 10)” value in assay [6] is on record as “most potent antiproliferative activities”. Besides, the GI50 in assay [5] (setting [9]) was 9.3 nM.
With `Nc1nc2cc(-c3nn(CC4CCCO4)c4ncnc(N)c34)ccc2o1` (stereo not drawn) [eCF325], the EC50 in assay [2] was found to be 138 ± 23 nM; in assay [3] it was 105 ± 23 nM. The GI50 in assay [5] (setting [9]) was 46.4 nM.
Take `Nc1nc2cc(-c3nn(C[C@H]4CCCO4)c4ncnc(N)c34)ccc2o1` [eCF333]: the “EC50 in T98 cells” value in assay [7] (setting [10]) is on record as “identical dose response curves to that of eCF325”. The EC50 in assay [2] stood at 131 ± 10 nM; in assay [3], 88 ± 14 nM. Besides, in assay [8] (setting [10]), the “EC50 in U87 cells” value is on record as “identical dose response curves to that of eCF325”. In assay [5], the “GI50 (50% of growth inhibition) in G317” value is reported as “identical dose response curves to eCF325”.
For `CCc1c2c(nc3ccc(O)cc13)-c1cc3c(c(=O)n1C2)COC(=O)[C@]3(O)CC` [SN-38, reference compound], the GI50 in assay [5] (setting [9]) is 12.9 nM.
Take `Nc1nc2cc(-c3nn(CC4CCCC4)c4ncnc(N)c34)ccc2o1` [eCF324]: the EC50 is 10 nM in assay [7] (Homo sapiens, T98, 120 h, repeat for most potent hits, 7-point half-log dose-response 1 to 1,000 nM); 16 ± 3 nM in assay [2]; 11 ± 3 nM in assay [3]; 13 nM in assay [8] (Homo sapiens, U-87 MG, 120 h, repeat for most potent hits, 7-point half-log dose-response 1 to 1,000 nM). The IC50 in assay [1] was 3.5 nM; in assay [4] it was 1.8 nM. Besides, the “reduction of G317 spheroid size (area at day 10)” value in assay [6] is “most potent antiproliferative activities”. The GI50 in assay [5] (setting [9]) is 7.2 nM.
For `Nc1ncnc2c1c(-c1cnc3[nH]ccc3c1)nn2CC1CCCC1` [eDB002], the “activity (EC50) of novel compounds in T98, in words” value in assay [7] was “high activity”. In addition, in assay [8], the “activity (EC50) of novel compounds in U87, in words” value is on record as “high activity”.
`Nc1nc2cc(-c3nn(C[C@@H]4CCCO4)c4ncnc(N)c34)ccc2o1` [eCF334]: in assay [7] (setting [10]), the “EC50 in T98 cells” value is “identical dose response curves to that of eCF325”. The EC50 was 138 ± 13 nM in assay [2] and 100 ± 18 nM in assay [3]. Besides, the “EC50 in U87 cells” value in assay [8] (setting [10]) is reported as “identical dose response curves to that of eCF325”. For the same compound, the “GI50 (50% of growth inhibition) in G317” value in assay [5] was “identical dose response curves to eCF325”.
`COC(Cn1nc(-c2ccc3oc(N)nc3c2)c2c(N)ncnc21)OC` [eCF312]: the EC50 in assay [2] was 116 ± 21 nM; in assay [3], 80 ± 21 nM. In addition, in assay [5] (setting [9]), the GI50 is 36.9 nM.
Consider `CNc1ncc2c(-c3ccc4oc(N)nc4c3)nn(CC3CCCC3)c2n1` [eDB001], for which the “activity (EC50) of novel compounds in T98, in words” value in assay [7] was “high activity”. Besides, the “activity (EC50) of novel compounds in U87, in words” value in assay [8] is “high activity”.
Consider `Nc1nc2cc(-c3nn(CC4OCCO4)c4ncnc(N)c34)ccc2o1` [eCF311], for which the EC50 in assay [2] worked out at 392 ± 58 nM; in assay [3] it was 323 ± 87 nM. For the same compound, the GI50 in assay [5] (setting [9]) is 147 nM.
Consider “2-(1H-Indazol-4-yl)-6-(4-methanesulfonyl-piperazin-1-ylmethyl)-4-morpholin-4-yl-thieno[3,2-d]pyrimidine [GDC0941, reference compound]”, for which, in assay [7] (1 to 1,000 nM, Fig. 3), the “activity (EC50) against T98, in words” value is “sub-µM activity”. In assay [8] (1 to 1,000 nM, Fig. 3), the “activity (EC50) in U87 cells, in words” value was “low µM activity”.

The term IC50 denotes the point on the concentration scale where inhibition reaches its midpoint. What is called EC50 is the concentration giving half of the maximal effect. As usually defined, the GI50 is the concentration at which growth is held to half of that of the control.
